Publication PMC4413606, “Identification of a new class of natural product MDM2 inhibitor: In vitro and in vivo anti-breast cancer activities and target validation” (Oncotarget, 2014)

Molecular target: T1, MDM2 (Homo sapiens, UniProt Q00987)
T1 construct: GST-MDM2
Experiment: fluorescence polarization competitive binding assay (PMDM6-F tracer); also cellular thermal shift assay in MCF-7 and MDA-MB-231 cells

T1 sequence (Q00987 whole entry): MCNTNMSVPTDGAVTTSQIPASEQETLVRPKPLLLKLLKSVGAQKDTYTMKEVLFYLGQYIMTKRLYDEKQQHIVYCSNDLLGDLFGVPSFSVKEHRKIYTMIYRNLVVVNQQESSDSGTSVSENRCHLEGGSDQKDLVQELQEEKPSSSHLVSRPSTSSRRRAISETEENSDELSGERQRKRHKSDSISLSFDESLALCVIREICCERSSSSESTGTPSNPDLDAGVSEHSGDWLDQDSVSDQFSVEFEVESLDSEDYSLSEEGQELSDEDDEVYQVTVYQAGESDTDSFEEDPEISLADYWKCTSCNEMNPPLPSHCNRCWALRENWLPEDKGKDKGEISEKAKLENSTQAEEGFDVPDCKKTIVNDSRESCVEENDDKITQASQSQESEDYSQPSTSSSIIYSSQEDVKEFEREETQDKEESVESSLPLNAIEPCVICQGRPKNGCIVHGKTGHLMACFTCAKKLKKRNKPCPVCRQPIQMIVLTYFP

- Ki: 270 nM
Substance: JapA
